Data published in patent US9376425B2, “Heterocyclic compounds as MDM2 inhibitors for the treatment of cancer” (AMGEN INC., priority 2011, dated 2016).

Biological target: T1, human MDM2 (GST-hMDM2 1-188), interaction with biotinylated-p53 (1-83) (Homo sapiens, UniProt Q00987)
T1 construct: Amino acid residues 1-188 of human MDM2 were expressed; made in house; host or cells: Escherichia coli
Experiment: improved HTRF assay (HTRF2 assay), inhibition of HDM2-p53 interaction
Assay type: binding
Conditions: 0.2 nM GST-hMDM2, 0.5 nM biotinylated-p53, 100 mM KF
Procedure, shortened: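 Time-resolved fluorescence (HTRF) read after >4 h equilibration with SA-XLent/anti-GST cryptate/KF detection reagents. Reaction: compound plus GST-hMDM2 for 20 min at room temperature, then E. coli-expressed biotinylated p53 residues 1-83 for 60 min, 2% DMSO final. Inhibition expressed versus nutlin-3.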

T1 sequence (Q00987 1-188): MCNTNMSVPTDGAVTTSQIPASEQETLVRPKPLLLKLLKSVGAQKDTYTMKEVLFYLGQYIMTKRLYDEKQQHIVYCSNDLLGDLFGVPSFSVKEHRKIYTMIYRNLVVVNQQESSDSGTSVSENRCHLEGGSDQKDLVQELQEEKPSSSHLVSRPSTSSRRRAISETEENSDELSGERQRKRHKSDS

Row | SMILES | IC50
1 | CN(C(C)(C)C)S(=O)(=O)C[C@H](C1CC1)N1C(=O)[C@@H](CC(=O)O)O[C@H](c2cccc(Cl)c2)[C@H]1c1ccc(Cl)cc1 (single isomer, unassigned) [Example 300, 2-((2R,5R,6R)-4-((S)-2-(N-(tert-Butyl)-N-methylsulfamoyl)-1-cyclopropylethyl)-6-(3-chlorophenyl)-5-(4-chlorophenyl)-3-oxomorpholin-2-yl)acetic acid or 2-((2S,5R,6R)-4-((S)-2-(N-(tert-butyl)-N-methylsulfamoyl)-1-cyclopropylethyl)-6-(3-chlorophenyl)-5-(4-chlorophenyl)-3-oxomorpholin-2-yl)acetic acid] | < 1 nM
2 | CN(C(C)(C)C)S(=O)(=O)C[C@H](C1CC1)N1C(=O)[C@@H](CC(=O)O)O[C@H](c2cccc(Cl)c2)[C@H]1c1ccc(Cl)cc1 (single isomer, unassigned) [Example 301, 2-((2R,5R,6R)-4-((S)-2-(N-(tert-Butyl)-N-methylsulfamoyl)-1-cyclopropylethyl)-6-(3-chlorophenyl)-5-(4-chlorophenyl)-3-oxomorpholin-2-yl)acetic acid or 2-((2S,5R,6R)-4-((S)-2-(N-(tert-butyl)-N-methylsulfamoyl)-1-cyclopropylethyl)-6-(3-chlorophenyl)-5-(4-chlorophenyl)-3-oxomorpholin-2-yl)acetic acid] | < 1 nM
3 | O=C(O)C[C@H]1O[C@H](c2cccc(Cl)c2)[C@@H](c2ccc(Cl)cc2)N([C@H](CS(=O)(=O)N2CCOCC2)C2CC2)C1=O (single isomer, unassigned) [Example 302, 2-((2R,5R,6R)-6-(3-Chlorophenyl)-5-(4-chlorophenyl)-4-((S)-1-cyclopropyl-2-(morpholinosulfonyl)ethyl)-3-oxomorpholin-2-yl)acetic acid or 2-((2S,5R,6R)-6-(3-chlorophenyl)-5-(4-chlorophenyl)-4-((S)-1-cyclopropyl-2-(morpholinosulfonyl)ethyl)-3-oxomorpholin-2-yl)acetic acid] | < 1 nM
4 | O=C(O)C[C@H]1O[C@H](c2cccc(Cl)c2)[C@@H](c2ccc(Cl)cc2)N([C@H](CS(=O)(=O)N2CCOCC2)C2CC2)C1=O (single isomer, unassigned) [Example 303, 2-((2R,5R,6R)-6-(3-Chlorophenyl)-5-(4-chlorophenyl)-4-((S)-1-cyclopropyl-2-(morpholinosulfonyl)ethyl)-3-oxomorpholin-2-yl)acetic acid or 2-((2S,5R,6R)-6-(3-chlorophenyl)-5-(4-chlorophenyl)-4-((S)-1-cyclopropyl-2-(morpholinosulfonyl)ethyl)-3-oxomorpholin-2-yl)acetic acid] | 1 nM
5 | C[C@@H]1CCCN1S(=O)(=O)C[C@H](C1CC1)N1C(=O)[C@@H](CC(=O)O)O[C@H](c2cccc(Cl)c2)[C@H]1c1ccc(Cl)cc1 (single isomer, unassigned) [Example 304, 2-((2R,5R,6R)-6-(3-Chlorophenyl)-5-(4-chlorophenyl)-4-((S)-1-cyclopropyl-2-(((R)-2-methylpyrrolidin-1-yl)sulfonyl)ethyl)-3-oxomorpholin-2-yl)acetic acid or 2-((2S,5R,6R)-6-(3-chlorophenyl)-5-(4-chlorophenyl)-4-((S)-1-cyclopropyl-2-(((R)-2-methylpyrrolidin-1-yl)sulfonyl)ethyl)-3-oxomorpholin-2-yl)acetic acid] | < 1 nM
6 | C[C@@H]1CCCN1S(=O)(=O)C[C@H](C1CC1)N1C(=O)[C@@H](CC(=O)O)O[C@H](c2cccc(Cl)c2)[C@H]1c1ccc(Cl)cc1 (single isomer, unassigned) [Example 305, 2-((2R,5R,6R)-6-(3-Chlorophenyl)-5-(4-chlorophenyl)-4-((S)-1-cyclopropyl-2-(((R)-2-methylpyrrolidin-1-yl)sulfonyl)ethyl)-3-oxomorpholin-2-yl)acetic acid or 2-((2S,5R,6R)-6-(3-chlorophenyl)-5-(4-chlorophenyl)-4-((S)-1-cyclopropyl-2-(((R)-2-methylpyrrolidin-1-yl)sulfonyl)ethyl)-3-oxomorpholin-2-yl)acetic acid] | < 1 nM
7 | CC1(C)CCCN1S(=O)(=O)C[C@H](C1CC1)N1C(=O)[C@@H](CC(=O)O)O[C@H](c2cccc(Cl)c2)[C@H]1c1ccc(Cl)cc1 (single isomer, unassigned) [Example 306, 2-((2R,5R,6R)-6-(3-Chlorophenyl)-5-(4-chlorophenyl)-4-((S)-1-cyclopropyl-2-((2,2-dimethylpyrrolidin-1-yl)sulfonyl)ethyl)-3-oxomorpholin-2-yl)acetic acid or 2-((2R,5R,6R)-6-(3-chlorophenyl)-5-(4-chlorophenyl)-4-((S)-1-cyclopropyl-2-((2,2-dimethylpyrrolidin-1-yl)sulfonyl)ethyl)-3-oxomorpholin-2-yl)acetic acid] | < 1 nM
8 | CC1(C)CCCN1S(=O)(=O)C[C@H](C1CC1)N1C(=O)[C@@H](CC(=O)O)O[C@H](c2cccc(Cl)c2)[C@H]1c1ccc(Cl)cc1 (single isomer, unassigned) [Example 307, 2-((2R,5R,6R)-6-(3-Chlorophenyl)-5-(4-chlorophenyl)-4-((S)-1-cyclopropyl-2-((2,2-dimethylpyrrolidin-1-yl)sulfonyl)ethyl)-3-oxomorpholin-2-yl)acetic acid or 2-((2R,5R,6R)-6-(3-chlorophenyl)-5-(4-chlorophenyl)-4-((S)-1-cyclopropyl-2-((2,2-dimethylpyrrolidin-1-yl)sulfonyl)ethyl)-3-oxomorpholin-2-yl)acetic acid] | < 1 nM
9 | CC(C)(C)S(=O)(=O)C[C@H](C1CC1)N1C(=O)[C@@H](CC(=O)O)O[C@H](c2cccc(Cl)c2)[C@H]1c1ccc(Cl)c(F)c1 (single isomer, unassigned) [Example 308, 2-((2R,5R,6R)-4-((S)-2-(tert-Butylsulfonyl)-1-cyclopropylethyl)-5-(4-chloro-3-fluorophenyl)-6-(3-chlorophenyl)-3-oxomorpholin-2-yl)acetic acid or 2-((2S,5R,6R)-4-((S)-2-(tert-butylsulfonyl)-1-cyclopropylethyl)-5-(4-chloro-3-fluorophenyl)-6-(3-chlorophenyl)-3-oxomorpholin-2-yl)acetic acid] | < 1 nM
10 | CC(C)(C)S(=O)(=O)C[C@H](C1CC1)N1C(=O)[C@@H](CC(=O)O)O[C@H](c2cccc(Cl)c2)[C@H]1c1ccc(Cl)c(F)c1 (single isomer, unassigned) [Example 309, 2-((2R,5R,6R)-4-((S)-2-(tert-Butylsulfonyl)-1-cyclopropylethyl)-5-(4-chloro-3-fluorophenyl)-6-(3-chlorophenyl)-3-oxomorpholin-2-yl)acetic acid or 2-((2S,5R,6R)-4-((S)-2-(tert-butylsulfonyl)-1-cyclopropylethyl)-5-(4-chloro-3-fluorophenyl)-6-(3-chlorophenyl)-3-oxomorpholin-2-yl)acetic acid] | 1 nM
11 | CC(C)[C@@H](CS(=O)(=O)C(C)(C)C)N1C(=O)[C@@H](CC(=O)O)O[C@H](c2cccc(Cl)c2)[C@H]1c1ccc(Cl)c(F)c1 (single isomer, unassigned) [Example 310] | 1 nM
12 | CC(C)[C@@H](CS(=O)(=O)C(C)(C)C)N1C(=O)[C@@H](CC(=O)O)O[C@H](c2cccc(Cl)c2)[C@H]1c1ccc(Cl)c(F)c1 (single isomer, unassigned) [Example 311] | 5 nM
13 | CC(C)[C@@H](CS(=O)(=O)C(C)(C)C)N1C(=O)[C@@H](CC(=O)O)O[C@H](c2cccc(Cl)c2)[C@H]1c1ccc(Cl)c(F)c1 (single isomer, unassigned) [Example 312] | 279 nM
14 | CC(C)[C@@H](CS(=O)(=O)C(C)(C)C)N1C(=O)[C@@H](CC(=O)O)O[C@H](c2cccc(Cl)c2)[C@H]1c1ccc(Cl)c(F)c1 (single isomer, unassigned) [Example 313] | 38 nM
15 | O=C(O)C[C@H]1O[C@H](c2cccc(Cl)c2)[C@@H](c2ccc(Cl)c(F)c2)N([C@H](CN(c2ccccc2F)S(=O)(=O)C2CC2)C2CC2)C1=O (single isomer, unassigned) [Example 314, 2-((2R,5R,6R)-5-(4-Chloro-3-fluorophenyl)-6-(3-chlorophenyl)-4-((S)-1-cyclopropyl-2-(N-(2-fluorophenyl)cyclopropanesulfonamido)ethyl)-3-oxomorpholin-2-yl)acetic acid or 2-((2S,5R,6R)-5-(4-chloro-3-fluorophenyl)-6-(3-chlorophenyl)-4-((S)-1-cyclopropyl-2-(N-(2-fluorophenyl)cyclopropanesulfonamido)ethyl)-3-oxomorpholin-2-yl)acetic acid] | < 1 nM
16 | O=C(O)C[C@H]1O[C@H](c2cccc(Cl)c2)[C@@H](c2ccc(Cl)c(F)c2)N([C@H](CN(c2ccccc2F)S(=O)(=O)C2CC2)C2CC2)C1=O (single isomer, unassigned) [Example 315, 2-((2R,5R,6R)-5-(4-Chloro-3-fluorophenyl)-6-(3-chlorophenyl)-4-((S)-1-cyclopropyl-2-(N-(2-fluorophenyl)cyclopropanesulfonamido)ethyl)-3-oxomorpholin-2-yl)acetic acid or 2-((2S,5R,6R)-5-(4-chloro-3-fluorophenyl)-6-(3-chlorophenyl)-4-((S)-1-cyclopropyl-2-(N-(2-fluorophenyl)cyclopropanesulfonamido)ethyl)-3-oxomorpholin-2-yl)acetic acid] | < 1 nM
17 | CC[C@@H](CS(=O)(=O)C(C)(C)C)N1C(=O)[C@@H](CC(=O)O)O[C@H](c2cccc(Cl)c2)[C@H]1c1ccc(Cl)cc1F (single isomer, unassigned) [Example 316, 2-((2R,5R,6R)-4-((S)-1-(tert-Butylsulfonyl)butan-2-yl)-5-(4-chloro-2-fluorophenyl)-6-(3-chlorophenyl)-3-oxomorpholin-2-yl)acetic acid or 2-((2S,5R,6R)-4-((S)-1-(tert-butylsulfonyl)butan-2-yl)-5-(4-chloro-2-fluorophenyl)-6-(3-chlorophenyl)-3-oxomorpholin-2-yl)acetic acid] | 2 nM
